Experimental data from patent publication US10662218B2, “Analogs of celastrol” (ERX Pharmaceuticals, Inc., priority 2015, dated 2020).
Converted amounts (≈) assume the structure as drawn.

Test: physchem
Procedure: • Test concentration: 100 μM (1% of DMSO) • Test systems: PBS (pH 7.4) • Incubation condition: shaken (1000 rpm) for 1 h at room temperature • Sample size: Duplicates (n=2) • Bioanalytical method: LC-MS/MS

[1] = pH 7.4, aqueous buffer, kinetic from dmso stock, Solubility (μM) Mean, Table 6-B; PBS (pH 7.4), test concentration 100 μM (1% of DMSO), shaken (1000 rpm) 1 h at room temperature, n = 2
[2] = pH 7.4, aqueous buffer, kinetic from dmso stock, Solubility (μM), Table 6-D; PBS (pH 7.4)
[3] = PBS (pH 7.4), pH 7.4, aqueous buffer, kinetic from dmso stock, Solubility (μM) Mean, Table 6-B, test concentration 100 μM (1% of DMSO), shaken (1000 rpm) 1 h at room temperature, n = 2
[4] = PBS (pH 7.4), pH 7.4, aqueous buffer, kinetic from dmso stock, Solubility (μM), Table 6-D
[5] = PBS (pH 7.4), pH 7.4, aqueous buffer, kinetic from dmso stock, Solubility (μM) Mean, Table 6-C, test concentration 100 μM (1% of DMSO), shaken (1000 rpm) 1 h at room temperature, n = 2

| Structure (SMILES) | solubility at 1 h [3] [µM] | solubility at 1 h [4] [µM] | other results |
| --- | --- | --- | --- |
| CC1=C(O)C(=O)C=C2C1=CC=C1[C@@]2(C)CC[C@@]2(C)[C@@H]3C[C@](C)(CO)CC[C@]3(C)CC[C@]12C [ERX1010] | – | – | solubility [1]: 0.64 µM (≈ 0.279 µg/mL); solubility [2]: 0.644 µM (≈ 0.281 µg/mL) |
| CC1=C(O)C(=O)C=C2C1=CC=C1[C@@]2(C)CC[C@@]2(C)[C@@H]3C[C@](C)(C(=O)N4CC(O)C4)CC[C@]3(C)CC[C@]12C [ERX1020] | – | – | solubility [1]: 0.54 µM (≈ 0.273 µg/mL); solubility [2]: 0.54 µM (≈ 0.273 µg/mL) |
| CC1=C(O)C(=O)C=C2C1=CC=C1[C@@]2(C)CC[C@@]2(C)[C@@H]3C[C@](C)(C(=O)NC(CO)CO)CC[C@]3(C)CC[C@]12C [ERX1029] | – | – | solubility [1]: 1.61 µM (≈ 0.843 µg/mL); solubility [2]: 1.6 µM (≈ 0.841 µg/mL) |
| COC(=O)[C@]1(C)CC[C@]2(C)CC[C@]3(C)C4=CC=C5C(=CC(=O)C(O)=C5C)[C@]4(C)CC[C@@]3(C)[C@@H]2C1 [ERX1074] | – | – | solubility at 1 h [1]: 4.19 µM (≈ 1.95 µg/mL); solubility at 1 h [2]: 4.19 µM (≈ 1.95 µg/mL) |
| CC(=O)Oc1cc2c(c(C)c1OC(C)=O)C(SC(C)C)C=C1[C@@]2(C)CC[C@@]2(C)[C@@H]3C[C@](C)(CN(C)C)CC[C@]3(C)CC[C@]12C (stereo partly shown) [ERX1115] | 0.56 (≈ 0.349 µg/mL) | 0.557 (≈ 0.348 µg/mL) | – |
| CC(=O)N[C@]1(C)CC[C@]2(C)CC[C@]3(C)C4=CC(SC(=O)c5ccccc5)c5c(cc(OC(C)=O)c(OC(C)=O)c5C)[C@]4(C)CC[C@@]3(C)[C@@H]2C1 (stereo partly shown) [ERX1173] | – | – | solubility at 1 h [5]: 1.74 µM (≈ 1.19 µg/mL) |
| CC(=O)N1CCN(c2ccc(OCC3COC(Cn4ccnc4)(c4ccc(Cl)cc4Cl)O3)cc2)CC1 (stereo not shown) [Ketoconazole] | 35.7 (≈ 19 µg/mL) | 35.7 (≈ 19 µg/mL) | solubility at 1 h [5]: 35.2 µM (≈ 18.7 µg/mL) |
| CC(C)NCC(O)COc1cccc2ccccc12 (stereo not shown) [Propranolol] | – | – | solubility at 1 h [1]: 97.5 µM (≈ 25.3 µg/mL); solubility at 1 h (pH 7.4, aqueous buffer, kinetic from dmso stock, Solubility (μM) Mean, Table 6-C; PBS (pH 7.4), test concentration 100 μM (1% of DMSO), shaken (1000 rpm) 1 h at room temperature, n = 2): > 100 µM; solubility at 1 h [2]: 97.5 µM (≈ 25.3 µg/mL) |

Continued, in another order:

| solubility at 1 h [3] [µM] | solubility at 1 h [4] [µM] | Structure (SMILES) | other results |
| --- | --- | --- | --- |
| 0.63 (≈ 0.384 µg/mL) | 0.627 (≈ 0.383 µg/mL) | CC(=O)Oc1cc2c(c(C)c1OC(C)=O)C(SC(C)C)C=C1[C@@]2(C)CC[C@@]2(C)[C@@H]3C[C@](C)(C(N)=O)CC[C@]3(C)CC[C@]12C (stereo partly shown) [ERX1066] | – |
| 6.44 (≈ 3.93 µg/mL) | 6.43 (≈ 3.93 µg/mL) | CC(=O)Oc1cc2c(c(C)c1OC(C)=O)C(SC(C)=O)C=C1[C@@]2(C)CC[C@@]2(C)[C@@H]3C[C@](C)(C(=O)O)CC[C@]3(C)CC[C@]12C (stereo partly shown) [ERX1076] | – |
| 0.47 (≈ 0.238 µg/mL) | 0.47 (≈ 0.238 µg/mL) | CC1=C(O)C(=O)C=C2C1=CC=C1[C@@]2(C)CC[C@@]2(C)[C@@H]3C[C@](C)(CN4CCOCC4)CC[C@]3(C)CC[C@]12C [ERX1116] | – |
| 0.91 (≈ 0.472 µg/mL) | 0.914 (≈ 0.474 µg/mL) | CC1=C(O)C(=O)C=C2C1=CC=C1[C@@]2(C)CC[C@@]2(C)[C@@H]3C[C@](C)(CN4CCN(C)CC4)CC[C@]3(C)CC[C@]12C [ERX1117] | – |
| 1.55 (≈ 0.762 µg/mL) | 1.55 (≈ 0.762 µg/mL) | CCCOC1=C(C)C2=CC=C3[C@@](C)(CC[C@@]4(C)[C@@H]5C[C@](C)(C(N)=O)CC[C@]5(C)CC[C@]34C)C2=CC1=O [ERX1121] | – |
| 1.04 (≈ 0.509 µg/mL) | 1.03 (≈ 0.507 µg/mL) | C=CCOC1=C(C)C2=CC=C3[C@@](C)(CC[C@@]4(C)[C@@H]5C[C@](C)(C(N)=O)CC[C@]5(C)CC[C@]34C)C2=CC1=O [ERX1124] | – |
| 4.03 (≈ 2.01 µg/mL) | 4.03 (≈ 2.01 µg/mL) | CC1=C(O)C(=O)C=C2C1=CC=C1[C@@]2(C)CC[C@@]2(C)[C@@H]3C[C@](C)(NS(C)(=O)=O)CC[C@]3(C)CC[C@]12C [ERX1175] | – |
